ChEMBL document CHEMBL1201862, “PubChem BioAssay data set” (2004)
Activity calls are given as the source filed them.

How the values were obtained:
[1] = target: T1, RNA-binding protein pos-1 (Caenorhabditis elegans, UniProt G5EF15); assay: disruptors of C. elegans POS-1 RNA interaction – biochemical, fluorescence polarization, dose response (AID 1964);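 further: purified POS-1 fused to maltose binding protein made in E. coli; potency of compounds blocking POS-1 binding to fluorescent RNA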
T1 sequence (G5EF15 whole entry): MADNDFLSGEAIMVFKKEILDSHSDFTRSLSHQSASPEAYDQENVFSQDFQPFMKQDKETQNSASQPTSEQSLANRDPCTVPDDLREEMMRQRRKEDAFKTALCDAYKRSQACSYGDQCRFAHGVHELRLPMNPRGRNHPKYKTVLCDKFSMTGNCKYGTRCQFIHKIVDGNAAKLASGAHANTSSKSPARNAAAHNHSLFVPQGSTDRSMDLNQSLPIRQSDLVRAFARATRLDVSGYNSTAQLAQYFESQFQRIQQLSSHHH

[2] = target: T2, Zinc finger protein mex-5 (Caenorhabditis elegans, UniProt Q9XUB2); assay: potency of MEX-5 RNA-binding blockers – biochemical, C. elegans, fluorescence polarization, dose response (AID 1960)
T2 sequence (Q9XUB2 whole entry): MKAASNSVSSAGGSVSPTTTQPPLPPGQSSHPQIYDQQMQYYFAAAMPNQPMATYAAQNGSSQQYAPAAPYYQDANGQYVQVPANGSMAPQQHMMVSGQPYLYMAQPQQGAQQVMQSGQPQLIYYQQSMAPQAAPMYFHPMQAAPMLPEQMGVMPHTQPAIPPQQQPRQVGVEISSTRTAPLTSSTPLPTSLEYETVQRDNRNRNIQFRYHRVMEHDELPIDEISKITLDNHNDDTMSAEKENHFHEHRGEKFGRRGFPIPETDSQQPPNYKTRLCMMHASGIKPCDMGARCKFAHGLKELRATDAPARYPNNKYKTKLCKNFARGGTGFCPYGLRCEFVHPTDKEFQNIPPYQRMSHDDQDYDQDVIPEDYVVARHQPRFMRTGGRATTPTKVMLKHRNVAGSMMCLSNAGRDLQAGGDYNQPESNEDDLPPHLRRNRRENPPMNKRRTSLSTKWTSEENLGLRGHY

[3] = NIH-3T3 fibroblast cytotoxicity, dose response, cytotoxicity control, cell-based, fluorescence, Alamar Blue, secondary assay (AID 2327); format: functional;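 further: NIH-3T3 mouse fibroblasts cultured with fluconazole at 8 µg/mL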
Cytochrome P450 2C19 = Cytochrome P450 2C19 (Homo sapiens, UniProt P33261); assay: Cytochrome panel assay with activity outcomes. Panel member name: p450-cyp2c19 Compounds with AC50 equal or less than 10 uM are considered active; format: functional
[4] = target: T3, Polyadenylate-binding protein 1 (Homo sapiens, UniProt P11940); assay: MLLE binding blockers, Cy5 peptide tracer – biochemical, fluorescence polarization, Cy5-PAM2 peptide, secondary, miRNA deadenylation inhibitor project, dose response (AID 602260); format: functional; settings: read-out: IC50_Mean
[5] = target: T3, Polyadenylate-binding protein 1; assay: MLLE domain peptide-binding blockers, IC50 – biochemical, fluorescence polarization, FITC-PAM2 peptide, dose response (AID 602259); format: functional; settings: read-out: IC50_Mean
Cytochrome P450 3A4 = Cytochrome P450 3A4 (Homo sapiens, UniProt P08684);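 further: CYP3A4 tested as one member of a cytochrome P450 panel screen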
Cytochrome P450 2C9 = Cytochrome P450 2C9 (Homo sapiens, UniProt P11712)
Leucine aminopeptidase = target: T4, Leucine aminopeptidase (Plasmodium falciparum 3D7, UniProt Q8IL11); assay: P. falciparum M17LAP inhibitors, primary screen, biochemical, fluorogenic H-Leu-NHMec substrate, 1536-well (AID 1619); format: functional
T4 sequence (Q8IL11 whole entry): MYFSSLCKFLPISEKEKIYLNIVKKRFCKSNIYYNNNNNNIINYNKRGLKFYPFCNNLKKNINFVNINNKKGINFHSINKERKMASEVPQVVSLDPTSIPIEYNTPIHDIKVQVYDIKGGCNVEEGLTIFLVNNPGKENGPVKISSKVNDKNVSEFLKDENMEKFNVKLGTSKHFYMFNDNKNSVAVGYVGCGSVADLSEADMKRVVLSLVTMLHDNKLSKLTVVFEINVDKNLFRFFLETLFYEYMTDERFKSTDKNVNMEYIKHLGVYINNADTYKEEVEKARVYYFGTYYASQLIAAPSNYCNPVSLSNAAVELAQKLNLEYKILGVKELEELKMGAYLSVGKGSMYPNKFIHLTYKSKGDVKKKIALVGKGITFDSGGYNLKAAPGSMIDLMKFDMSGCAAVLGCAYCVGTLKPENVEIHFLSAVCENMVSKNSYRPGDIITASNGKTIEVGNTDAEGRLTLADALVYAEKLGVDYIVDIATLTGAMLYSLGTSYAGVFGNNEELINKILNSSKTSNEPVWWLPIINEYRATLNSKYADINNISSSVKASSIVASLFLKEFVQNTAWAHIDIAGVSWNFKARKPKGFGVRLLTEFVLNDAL

[6] = target: T5, Replicative DNA helicase DnaB (Mycobacterium tuberculosis, UniProt P9WMR3); assay: DnaB intein splicing inhibitors, dose response, biochemical, cell-free fluorescence (AID 449749); format: functional
T5 sequence (P9WMR3 whole entry): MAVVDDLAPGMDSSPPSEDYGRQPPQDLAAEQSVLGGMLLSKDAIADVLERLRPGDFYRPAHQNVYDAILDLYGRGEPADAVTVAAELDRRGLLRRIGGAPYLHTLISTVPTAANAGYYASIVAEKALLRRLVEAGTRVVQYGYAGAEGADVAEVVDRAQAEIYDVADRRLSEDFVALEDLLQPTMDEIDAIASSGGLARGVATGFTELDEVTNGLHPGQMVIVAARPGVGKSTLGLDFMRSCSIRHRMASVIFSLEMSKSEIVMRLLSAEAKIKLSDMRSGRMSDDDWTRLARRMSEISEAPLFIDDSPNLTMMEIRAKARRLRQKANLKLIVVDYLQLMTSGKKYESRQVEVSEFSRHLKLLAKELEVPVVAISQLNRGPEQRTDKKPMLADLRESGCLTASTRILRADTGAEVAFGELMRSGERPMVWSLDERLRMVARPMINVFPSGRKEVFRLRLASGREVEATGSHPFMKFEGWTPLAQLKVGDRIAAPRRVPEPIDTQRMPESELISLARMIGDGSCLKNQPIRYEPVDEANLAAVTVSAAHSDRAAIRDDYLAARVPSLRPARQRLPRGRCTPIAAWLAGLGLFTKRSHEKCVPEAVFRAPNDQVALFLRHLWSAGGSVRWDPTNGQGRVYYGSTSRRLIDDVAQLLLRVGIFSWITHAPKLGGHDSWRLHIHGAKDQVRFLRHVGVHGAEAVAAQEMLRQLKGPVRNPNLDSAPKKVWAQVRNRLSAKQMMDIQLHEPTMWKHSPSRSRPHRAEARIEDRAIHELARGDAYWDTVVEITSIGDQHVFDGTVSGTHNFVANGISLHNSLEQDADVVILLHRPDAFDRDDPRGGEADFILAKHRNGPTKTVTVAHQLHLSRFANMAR

Protein RecA = target: T6, Protein RecA (Mycobacterium tuberculosis, UniProt P9WHJ3); assay: Fluorescence Cell-Free Homogeneous Dose Retest to Identify Inhibitors of RecA-Intein Splicing Activity. [Related pubchem assays (depositor defined):AID2097, AID2223, AID489010, AID492950]; format: functional
T6 sequence (P9WHJ3 whole entry): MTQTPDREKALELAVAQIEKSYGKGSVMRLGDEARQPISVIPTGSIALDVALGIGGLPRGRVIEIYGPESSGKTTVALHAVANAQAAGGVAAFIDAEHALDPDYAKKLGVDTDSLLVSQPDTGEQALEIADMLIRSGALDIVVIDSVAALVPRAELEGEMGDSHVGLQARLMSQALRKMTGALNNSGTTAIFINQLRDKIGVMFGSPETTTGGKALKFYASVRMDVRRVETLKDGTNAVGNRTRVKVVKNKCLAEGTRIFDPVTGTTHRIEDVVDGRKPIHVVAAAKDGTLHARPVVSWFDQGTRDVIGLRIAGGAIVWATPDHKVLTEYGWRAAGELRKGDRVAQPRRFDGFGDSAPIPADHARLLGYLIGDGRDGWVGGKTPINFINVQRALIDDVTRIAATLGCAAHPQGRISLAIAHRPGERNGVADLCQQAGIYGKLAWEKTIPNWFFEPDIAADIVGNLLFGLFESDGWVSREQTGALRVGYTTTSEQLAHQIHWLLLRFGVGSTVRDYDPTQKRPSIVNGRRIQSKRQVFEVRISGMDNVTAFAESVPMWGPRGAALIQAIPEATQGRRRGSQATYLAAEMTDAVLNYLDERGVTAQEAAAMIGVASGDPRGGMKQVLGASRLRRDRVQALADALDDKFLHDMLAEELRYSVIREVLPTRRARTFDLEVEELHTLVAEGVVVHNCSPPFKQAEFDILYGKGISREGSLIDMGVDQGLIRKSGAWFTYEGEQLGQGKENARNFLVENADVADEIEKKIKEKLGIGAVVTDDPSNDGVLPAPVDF

[7] = target: T7, Heat shock factor protein 1 (Mus musculus, UniProt P38532); assay: decrease of HSF1-responsive luciferase luminescence – cell-based, NIH3T3, dose retest, confirmation (AID 2382); format: functional;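 further: NIH3T3 fibroblasts with HSF1-driven luciferase reporter stressed by proteasome inhibitor MG132; luminescence from HSF1-driven luciferase expression after 8 hours of MG132 stress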
T7 sequence (P38532 whole entry): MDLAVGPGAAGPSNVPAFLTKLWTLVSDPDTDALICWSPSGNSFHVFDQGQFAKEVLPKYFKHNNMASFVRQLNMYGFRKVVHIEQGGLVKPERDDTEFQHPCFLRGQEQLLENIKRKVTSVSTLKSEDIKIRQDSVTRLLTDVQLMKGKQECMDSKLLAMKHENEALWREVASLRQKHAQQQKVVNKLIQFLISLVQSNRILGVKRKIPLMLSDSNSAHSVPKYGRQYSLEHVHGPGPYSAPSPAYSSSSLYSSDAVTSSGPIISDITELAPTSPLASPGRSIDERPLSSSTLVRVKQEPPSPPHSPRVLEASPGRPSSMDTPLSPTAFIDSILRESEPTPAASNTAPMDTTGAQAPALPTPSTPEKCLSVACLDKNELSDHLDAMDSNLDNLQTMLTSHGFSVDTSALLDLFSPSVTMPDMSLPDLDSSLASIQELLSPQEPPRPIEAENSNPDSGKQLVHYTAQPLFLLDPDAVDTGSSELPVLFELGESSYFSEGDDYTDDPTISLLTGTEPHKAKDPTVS

[8] = blockers of HIV-1 ZM109 envelope-driven cell-cell fusion – HeLa effector, CEM target cells, luciferase, cherry-pick, dose response (AID 652058); format: functional, cell-based;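 further: luciferase signal from HIV-1 Env mediated cell-cell fusion of effector and target cells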
[9] = HIV-1 AD8 envelope cell-cell fusion blockers – cherry-pick, dose response (AID 652062); format: functional, cell-based;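 further: luciferase signal from cell-cell fusion driven by HIV-1 clade B AD8 Env; potency is for inhibitors of fusion seen as a drop in luminescence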

T3 sequence (P11940 whole entry, the tested form may be a part): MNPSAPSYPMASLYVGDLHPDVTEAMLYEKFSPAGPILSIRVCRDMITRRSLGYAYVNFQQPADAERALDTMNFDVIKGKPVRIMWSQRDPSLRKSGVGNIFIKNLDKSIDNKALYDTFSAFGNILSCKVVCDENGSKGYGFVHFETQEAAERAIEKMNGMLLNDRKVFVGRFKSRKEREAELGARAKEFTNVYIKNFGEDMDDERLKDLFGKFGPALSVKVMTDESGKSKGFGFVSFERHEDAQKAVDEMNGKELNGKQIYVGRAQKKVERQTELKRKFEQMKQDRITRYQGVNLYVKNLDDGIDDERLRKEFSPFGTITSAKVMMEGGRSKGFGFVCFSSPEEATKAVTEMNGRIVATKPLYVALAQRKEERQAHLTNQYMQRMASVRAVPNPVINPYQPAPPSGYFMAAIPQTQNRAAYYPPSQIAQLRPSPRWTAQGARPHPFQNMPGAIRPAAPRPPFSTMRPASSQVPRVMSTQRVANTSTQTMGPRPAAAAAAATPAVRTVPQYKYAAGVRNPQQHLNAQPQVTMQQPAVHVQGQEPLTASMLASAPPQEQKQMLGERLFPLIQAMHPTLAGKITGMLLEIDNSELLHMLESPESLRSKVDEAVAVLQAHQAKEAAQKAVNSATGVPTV
Sequence of Cytochrome P450 3A4 (P08684 whole entry): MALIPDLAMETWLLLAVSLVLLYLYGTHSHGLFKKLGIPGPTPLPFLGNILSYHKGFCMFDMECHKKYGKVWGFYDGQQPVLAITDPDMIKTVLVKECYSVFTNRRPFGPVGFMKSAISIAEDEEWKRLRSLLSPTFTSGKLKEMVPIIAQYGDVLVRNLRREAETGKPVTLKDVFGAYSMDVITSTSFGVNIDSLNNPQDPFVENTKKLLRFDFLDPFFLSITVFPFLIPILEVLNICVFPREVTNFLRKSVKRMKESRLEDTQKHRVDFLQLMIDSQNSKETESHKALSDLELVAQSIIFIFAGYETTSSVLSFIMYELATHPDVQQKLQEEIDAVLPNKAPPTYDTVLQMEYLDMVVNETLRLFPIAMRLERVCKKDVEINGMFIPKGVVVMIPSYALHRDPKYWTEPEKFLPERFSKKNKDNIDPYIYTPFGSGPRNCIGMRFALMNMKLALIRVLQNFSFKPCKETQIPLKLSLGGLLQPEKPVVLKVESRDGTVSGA
Sequence of Cytochrome P450 2C19 (P33261 whole entry): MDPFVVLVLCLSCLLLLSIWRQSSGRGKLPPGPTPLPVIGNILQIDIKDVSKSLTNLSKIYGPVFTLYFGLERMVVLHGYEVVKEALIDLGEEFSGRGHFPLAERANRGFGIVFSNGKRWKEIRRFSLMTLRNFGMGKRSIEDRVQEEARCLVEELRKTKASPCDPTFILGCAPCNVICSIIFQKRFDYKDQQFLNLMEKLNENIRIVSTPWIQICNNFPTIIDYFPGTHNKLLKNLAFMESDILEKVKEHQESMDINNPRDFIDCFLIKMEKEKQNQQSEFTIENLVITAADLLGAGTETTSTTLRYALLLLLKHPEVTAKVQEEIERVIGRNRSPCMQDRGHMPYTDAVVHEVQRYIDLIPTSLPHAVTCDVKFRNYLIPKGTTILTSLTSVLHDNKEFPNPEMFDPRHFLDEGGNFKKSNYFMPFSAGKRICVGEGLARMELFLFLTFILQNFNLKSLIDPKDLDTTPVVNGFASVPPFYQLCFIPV
Sequence of Cytochrome P450 2C9 (P11712 whole entry): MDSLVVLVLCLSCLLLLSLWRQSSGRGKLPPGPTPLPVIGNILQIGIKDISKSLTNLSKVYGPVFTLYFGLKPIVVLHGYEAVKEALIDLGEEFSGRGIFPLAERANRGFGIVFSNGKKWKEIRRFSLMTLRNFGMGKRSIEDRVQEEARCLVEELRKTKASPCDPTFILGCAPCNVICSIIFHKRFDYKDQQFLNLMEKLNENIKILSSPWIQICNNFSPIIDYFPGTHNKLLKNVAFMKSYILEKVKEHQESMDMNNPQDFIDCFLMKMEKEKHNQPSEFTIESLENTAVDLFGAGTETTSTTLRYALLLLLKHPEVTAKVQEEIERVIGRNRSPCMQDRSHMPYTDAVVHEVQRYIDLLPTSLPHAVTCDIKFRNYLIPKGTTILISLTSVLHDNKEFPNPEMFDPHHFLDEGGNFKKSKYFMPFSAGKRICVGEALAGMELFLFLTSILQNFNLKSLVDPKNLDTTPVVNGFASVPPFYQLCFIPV

| SMILES | EC50 [1] | EC50 [2] | IC50 [4] | IC50 [5] | further results |
| --- | --- | --- | --- | --- | --- |
| O=C(/N=C1\SC2CS(=O)(=O)CC2N1c1ccccc1)C1CC1 (stereo not drawn) | > 300 µM (not active) | > 300 µM (inconclusive) | – | – | – |
| C=C(C)c1cccc(C(C)(C)NC(=O)Nc2ccc(C(N)=O)cc2)c1 | – | – | – | – | EC50 [3]: > 150 µM (inactive) |
| Cc1nc(N=C(N)S)sc1C(=O)Nc1ccccc1 | – | – | > 66 µM (inactive) | > 66 µM (inactive) | AC50 (Cytochrome P450 2C19): inconclusive; AC50 (Cytochrome P450 3A4): 14.1 µM (inconclusive); AC50 (Cytochrome P450 2C9): 39.8 µM (inconclusive) |
| O=C(NC(=S)Nc1ccc(CN2CCOCC2)cc1)c1ccc([N+](=O)[O-])cc1 | – | – | > 66 µM (inactive) | > 66 µM (inactive) | – |
| C/C(=N\Nc1ccc([N+](=O)[O-])cc1[N+](=O)[O-])c1cc2c(ccc3ccccc32)oc1=O | > 300 µM (not active) | > 300 µM (not active) | – | – | – |
| O=C(c1ccco1)N1CCN(c2ncnc3c(-c4ccc(Cl)cc4)nsc23)CC1 | > 300 µM (not active) | > 300 µM (not active) | – | – | – |
| O=S(=O)(NCCCSc1ccccc1)c1ccccc1F | – | – | > 66 µM (inactive) | > 66 µM (inactive) | – |
| CCC1(c2ccccc2)NC(=O)N(CC(=O)NCc2ccc(F)cc2)C1=O (stereo not drawn) | > 300 µM (not active) | > 300 µM (not active) | – | – | – |
| CC(/C=N/NC(=O)Cc1cc(O)[nH]n1)=C\c1ccccc1 | – | – | – | – | IC50 (Leucine aminopeptidase): 72.4 µM (active); AC50 [6]: 2.53 µM (active); EC50 (Protein RecA): 0.935 µM (active) |
| CC1=C(C#N)C(=O)OC(C)(C)C1 | 10.8 µM (active) | 10.1 µM (active) | – | – | – |
| NC(=O)CC(NC(=O)Cc1ccc(Cl)cc1)c1ccc(NC2CCCCCC2)c([N+](=O)[O-])c1 (stereo not drawn) | > 300 µM (not active) | > 300 µM (not active) | – | – | EC50 [7]: > 195 µM (not active) |
| COC(=O)c1cc(-c2ccccc2)sc1NC(=O)CN1C(=O)c2ccccc2C1=O | – | – | > 66 µM (inactive) | > 66 µM (inactive) | AC50 (Cytochrome P450 3A4): 31.6 µM (inconclusive) |
| COC(=O)c1c(N=C(S)Nc2cc(OC)c(Cl)cc2OC)sc2c1CCCCC2 | – | – | > 66 µM (inactive) | > 66 µM (inactive) | – |
| CCCN1C(=O)/C(=C/c2ccc(C)o2)S/C1=N/c1ccc(OC)cc1 | 44.6 µM (active) | 103 µM (inconclusive) | – | – | – |
| CCCCC1=CC2=CC(=O)C(C)(OC(=O)CCC(=O)OC)C(=O)C2=CO1 (stereo not drawn) | 30 µM (active) | 26.6 µM (active) | – | – | – |
| Cc1cc(O)nc(SCC(=O)Nc2ccc(C(=O)O)cc2)n1 | – | – | > 66 µM (inactive) | > 66 µM (inactive) | – |
| C=CC[n+]1c(-c2ccc(OC)c(OC)c2)csc1NNC(=O)Nc1ccccc1 | – | – | – | – | AC50 [8]: 0.401 µM (active); AC50 [9]: 15.8 µM (active) |
| CCOc1ccccc1C(=O)NCC(=O)NNC(=O)CN(C)S(=O)(=O)c1ccc(Cl)cc1 | – | – | – | – | AC50 [8]: 23.6 µM (active) |
| COc1cccc(C(=O)NCc2ccc3[nH]c(C)cc3c2)c1 | – | – | > 66 µM (inactive) | > 66 µM (inactive) | – |
| COc1ccc(C(=O)NC(=S)N2CCCc3ccccc32)cc1OC | – | – | > 66 µM (inactive) | > 66 µM (inactive) | – |
| CCOc1ccc(N/C(=C(/C(Cl)=C(Cl)Cl)[N+](=O)[O-])n2cncn2)cc1 | 46.9 µM (active) | 45.4 µM (active) | – | – | – |
| Cc1ccc2nc(O)c(C(c3nnnn3CC3CCCO3)N3CCc4ccccc4C3)cc2c1 (stereo not drawn) | – | – | > 66 µM (inactive) | > 66 µM (inactive) | – |
